Consider ten compounds from patent publication US8778919B2, “Cyclic anilino—pyridinotriazines” (Janssen Pharmaceutica NV, priority 2005, dated 2014).

In one experiment the target is GSK-3β (Homo sapiens, UniProt P49841). In words: GSK-3 kinase assay (C1), GSK-3β. The format is biochemical. To be noted: 1 μM ATP, read-out: C1 Score β. The gist of the method:
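Radiometric SPA at room temperature in 25 mM Tris pH 7.4 with 10 mM MgCl2, 1 mM DTT, 5.7 ng/μl GSK-3β or 0.25 ng/μl GSK-3α, 5 μM biotinylated CREB peptide and 1 μM ATP plus ^33P-ATP. Stopped after 1 h; IC50 from dose-response versus no-compound control, reported as pIC50 score bands.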

For another experiment, the system named is Chang cells. In words: GSK-3 cellular assay (C2): 14C-D-glucose incorporation into glycogen. To be noted: increase in D-glucose incorporation into glycogen, test concentration of 10^−6 M. The format is cell-based. The procedure, abridged: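 After 3 days of culture, Chang cells were switched to serum- and glucose-free DMEM and given compound at 10^−6 M plus substrate (3 mM glucose, 0.5 μCi ¹⁴C-D-glucose) for 90 min. Glycogen was isolated by KOH extraction and ethanol precipitation, then scintillation-counted. Scores ran from 1 (10–30% increase in incorporation) to 4 (>80%).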

The target in another experiment is T1, Aurora-A (h) (Homo sapiens, UniProt O14965).
T1 sequence (O14965 1-403): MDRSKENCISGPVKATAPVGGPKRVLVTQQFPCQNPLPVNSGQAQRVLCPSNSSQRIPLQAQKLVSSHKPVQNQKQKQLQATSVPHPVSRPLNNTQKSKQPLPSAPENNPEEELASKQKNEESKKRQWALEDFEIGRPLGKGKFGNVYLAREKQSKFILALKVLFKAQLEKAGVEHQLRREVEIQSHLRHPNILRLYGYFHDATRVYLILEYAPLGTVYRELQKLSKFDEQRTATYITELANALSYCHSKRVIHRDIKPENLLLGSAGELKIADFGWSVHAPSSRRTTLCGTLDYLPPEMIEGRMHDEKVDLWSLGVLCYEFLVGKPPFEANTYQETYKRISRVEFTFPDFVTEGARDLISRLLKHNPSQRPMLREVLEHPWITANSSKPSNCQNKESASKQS
Put plainly: Kinase profiling C3.1 Aurora-A human. The format is biochemical. To be noted: test concentration of 10^−6 M. As to the method:
(§1) The in vitro inhibition of a panel of kinases was assessed using either the glass-fiber filter technology as described by Davies, S. P. et al., Biochem J. (2000), 351; p. 95-105. In the glass-fiber filter technology the activity of the kinase of interest is measured using an appropriate substrate that is incubated with the aforementioned kinase protein in the presence of (^33P) radiolabeled ATP. (^33P) Phosporylation of the substrate is subsequently measured as radioactivity bound on a glassfiber-filter.
(§2) All kinases are pre-diluted to a 10× working concentration prior to addition into the assay. The composition of the dilution buffer for each kinase is detailed below.
(§3) All substrates are dissolved and diluted to working stocks in de-ionised water, apart from histone H1 that is stored in 10× working stock in 20 mM MOPS pH 7.4.
In a final reaction volume of 25 μl, Aurora-A (h) (5-10 mU) is incubated with 8 mM MOPS pH 7.0, 0.2 mM EDTA, 200 μM LRRASLG (Kemptide), 10 mM MgAcetate and [γ-^33P-ATP] (specific activity approx. 500 cpm/pmol, concentration as required). The reaction is initiated by the addition of the MgATP mix. After incubation for 40 minutes at room temperature, the reaction is stopped by the addition of 5 μl of a 3% phosphoric acid solution. 10 μl of the reaction is then spotted onto a P30 filtermat and washed three times for 5 minutes in 50 mM phosphoric acid and once in methanol prior to drying and scintillation counting.

Another experiment concerns the target CDK7/cyclinH/MAT1 (h) (Homo sapiens, UniProt P50613). In words: Kinase profiling C3.8 CDK7/cyclinH/MAT1 human. The format is biochemical. To be noted: CDK7/cyclinH/MAT1, test concentration of 10^−6 M. The gist of the method:
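Human CDK7/cyclinH/MAT1 (5-10 mU) incubated 40 min at room temperature in 8 mM MOPS pH 7.0, 0.2 mM EDTA, 10 mM Mg acetate, 500 μM peptide substrate and [γ-^33P]ATP. Stopped with phosphoric acid; substrate phosphorylation measured by filter binding and scintillation counting.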

The next experiment addresses cSRC (h) (Homo sapiens, UniProt P12931). In words: Kinase profiling C3.9 cSRC human. The format is biochemical. To be noted: test concentration of 10^−6 M. As to the method: as §1, §2, §3
In a final reaction volume of 25 μl, cSRC (h) (5-10 mU) is incubated with 8 mM MOPS pH 7.0, 0.2 mM EDTA, 250 μM KVEKIGEGTYGVVYK (Cdc2 peptide), 10 mM MgAcetate and [γ-^33P-ATP] (specific activity approx. 500 cpm/pmol, concentration as required). The reaction is initiated by the addition of the MgATP mix. After incubation for 40 minutes at room temperature, the reaction is stopped by the addition of 5 μl of a 3% phosphoric acid solution.
10 μl of the reaction is then spotted onto a P30 filtermat and washed three times for 5 minutes in 75 mM phosphoric acid and once in methanol prior to drying and scintillation counting.

Each structure is given as a SMILES string.

Chain of GSK-3β (P49841 whole entry, species assumed): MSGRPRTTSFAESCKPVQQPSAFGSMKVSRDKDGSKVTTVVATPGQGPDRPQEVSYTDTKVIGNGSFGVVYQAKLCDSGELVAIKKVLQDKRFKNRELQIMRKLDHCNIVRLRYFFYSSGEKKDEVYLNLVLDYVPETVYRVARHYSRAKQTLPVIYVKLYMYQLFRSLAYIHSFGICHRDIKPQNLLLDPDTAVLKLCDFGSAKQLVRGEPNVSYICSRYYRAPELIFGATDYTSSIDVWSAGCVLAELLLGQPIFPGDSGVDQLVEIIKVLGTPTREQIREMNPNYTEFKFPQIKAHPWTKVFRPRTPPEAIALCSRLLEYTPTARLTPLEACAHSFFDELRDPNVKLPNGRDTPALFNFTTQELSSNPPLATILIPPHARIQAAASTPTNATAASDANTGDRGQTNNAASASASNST
Chain of CDK7/cyclinH/MAT1 (h) (P50613 whole entry): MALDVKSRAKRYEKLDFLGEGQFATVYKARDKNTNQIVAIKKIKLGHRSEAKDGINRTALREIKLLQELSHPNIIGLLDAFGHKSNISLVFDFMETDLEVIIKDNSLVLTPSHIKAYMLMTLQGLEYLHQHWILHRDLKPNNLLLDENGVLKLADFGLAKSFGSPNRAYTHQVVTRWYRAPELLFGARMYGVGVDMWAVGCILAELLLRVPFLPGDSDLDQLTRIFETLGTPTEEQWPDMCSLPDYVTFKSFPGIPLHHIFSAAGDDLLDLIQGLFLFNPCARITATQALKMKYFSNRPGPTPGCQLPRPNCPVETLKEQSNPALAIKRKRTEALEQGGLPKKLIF
Chain of CDK7/cyclinH/MAT1 (h) (P51946 whole entry partner): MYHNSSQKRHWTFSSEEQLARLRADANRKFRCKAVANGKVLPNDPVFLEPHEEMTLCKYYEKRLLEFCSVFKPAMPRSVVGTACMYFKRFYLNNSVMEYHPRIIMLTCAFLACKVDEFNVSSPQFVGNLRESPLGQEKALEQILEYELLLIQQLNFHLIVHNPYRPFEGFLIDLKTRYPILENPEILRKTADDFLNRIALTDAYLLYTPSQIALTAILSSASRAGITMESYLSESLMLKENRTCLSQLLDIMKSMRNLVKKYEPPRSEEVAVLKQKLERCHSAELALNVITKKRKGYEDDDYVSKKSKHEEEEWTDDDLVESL
Chain of CDK7/cyclinH/MAT1 (h) (P51948 whole entry partner): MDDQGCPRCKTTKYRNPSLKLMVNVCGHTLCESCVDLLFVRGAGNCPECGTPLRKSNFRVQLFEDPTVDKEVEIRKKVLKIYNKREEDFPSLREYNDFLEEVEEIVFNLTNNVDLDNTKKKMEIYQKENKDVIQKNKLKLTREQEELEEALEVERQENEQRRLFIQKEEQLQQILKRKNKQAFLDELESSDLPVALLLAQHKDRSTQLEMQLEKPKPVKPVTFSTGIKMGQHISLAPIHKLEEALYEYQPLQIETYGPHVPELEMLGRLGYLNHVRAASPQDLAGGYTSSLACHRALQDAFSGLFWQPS
Chain of cSRC (h) (P12931 whole entry): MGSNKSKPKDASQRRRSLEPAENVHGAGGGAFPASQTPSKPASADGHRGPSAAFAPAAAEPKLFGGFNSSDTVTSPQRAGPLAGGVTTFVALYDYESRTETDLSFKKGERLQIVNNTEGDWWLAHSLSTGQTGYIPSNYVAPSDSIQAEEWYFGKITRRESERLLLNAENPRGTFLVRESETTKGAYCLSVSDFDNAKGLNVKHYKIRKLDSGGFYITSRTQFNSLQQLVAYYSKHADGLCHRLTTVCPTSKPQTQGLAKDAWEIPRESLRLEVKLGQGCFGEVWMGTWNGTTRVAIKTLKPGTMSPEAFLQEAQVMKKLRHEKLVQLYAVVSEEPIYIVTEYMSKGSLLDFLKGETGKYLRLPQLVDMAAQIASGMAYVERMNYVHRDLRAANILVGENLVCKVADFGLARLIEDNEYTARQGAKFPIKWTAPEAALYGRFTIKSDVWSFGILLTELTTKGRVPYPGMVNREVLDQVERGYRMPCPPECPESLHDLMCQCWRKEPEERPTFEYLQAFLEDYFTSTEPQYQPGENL

In the case of `CN1CCCc2cc(ccn2)-c2ncnc(n2)Nc2cccc(c2)CNC(=O)C1` [Compound 7], the IC50 at GSK-3β was less than 10 nM. Also, the “C2 Score” value in the experiment with Chang cells was 3 (Score 3=60-80% increase). Further, the C3.1 score at Aurora-A (h) was 1 (Score 1 = 10-30% inhibition). The C3.8 score on CDK7/cyclinH/MAT1 (h) is given as 2 (Score 2 = 30-60% inhibition). Also, the C3.9 score at cSRC (h) was 2 (Score 2 = 30-60% inhibition).

`O=C1CCN2CCN(CC2)Cc2cccc(c2)Nc2ncnc(n2)-c2ccnc(c2)CCCN1` [Compound 35]: the IC50 on GSK-3β lay within 10 to 100 nM. For the same compound, in the experiment on Chang cells, the “C2 Score” value is 4 (Score 4=>80% increase in D-glucose incorporation). Moreover, the C3.1 score on Aurora-A (h) is listed as 1 (Score 1 = 10-30% inhibition). Also, the C3.8 score at CDK7/cyclinH/MAT1 (h) is 4 (Score 4 = >80% inhibition). For the same compound, at cSRC (h), the C3.9 score is given as 2 (Score 2 = 30-60% inhibition).

Turning to `O=C1NCCCc2cncc(c2)-c2ncnc(n2)Nc2cccc(c2)CN[C@H]1CO` [Compound 81], the “C2 Score” value with Chang cells is reported as 4 (Score 4=>80% increase in D-glucose incorporation). On Aurora-A (h), the C3.1 score is given as 1 (Score 1 = 10-30% inhibition). Also, the C3.8 score on CDK7/cyclinH/MAT1 (h) is on record as 1 (Score 1 = 10-30% inhibition). Also, the C3.9 score at cSRC (h) is on record as 1 (Score 1 = 10-30% inhibition).

`CN1CC(=O)NC/C(Cl)=C/c2cc(ccn2)-c2ncnc(n2)Nc2cccc(c2)C1` [Compound 2]: the IC50 on GSK-3β is less than 10 nM. Also, the “C2 Score” value in the experiment on Chang cells is reported as 4 (Score 4=>80% increase in D-glucose incorporation). Further, the C3.1 score on Aurora-A (h) is recorded as 2 (Score 2 = 30-60% inhibition). Further, the C3.8 score on CDK7/cyclinH/MAT1 (h) is listed as 3 (Score 3 = 60-80% inhibition). Besides, the C3.9 score on cSRC (h) is 4 (Score 4 = >80% inhibition).

Regarding `O=C1NCCCc2cc(ccc2F)-c2ncnc(n2)Nc2cc(Cl)cc(c2)CN[C@H]1CO` [Compound 71], the “C2 Score” value in the experiment with Chang cells was 4 (Score 4=>80% increase in D-glucose incorporation). The C3.1 score at Aurora-A (h) is listed as 2 (Score 2 = 30-60% inhibition). Further, at CDK7/cyclinH/MAT1 (h), the C3.8 score was 4 (Score 4 = >80% inhibition). In addition, the C3.9 score on cSRC (h) was 4 (Score 4 = >80% inhibition).

With `CN1CC(=O)NCCCc2cc(ccn2)-c2ncnc(n2)Nc2cccc(c2)C1` [Compound 10], the IC50 at GSK-3β is less than 10 nM. In addition, the “C2 Score” value in the experiment on Chang cells was 4 (Score 4=>80% increase in D-glucose incorporation). At Aurora-A (h), the C3.1 score is 1 (Score 1 = 10-30% inhibition). On CDK7/cyclinH/MAT1 (h), the C3.8 score is recorded as 4 (Score 4 = >80% inhibition). Also, on cSRC (h), the C3.9 score is 2 (Score 2 = 30-60% inhibition).

In the case of `O=C1NCCCc2cc(ccn2)-c2ncnc(n2)Nc2cccc(c2)CN2C[C@H](O)C[C@@H]12` [Compound 14], the IC50 at GSK-3β fell in the range of 10 to 100 nM. In addition, the C3.1 score on Aurora-A (h) was 2 (Score 2 = 30-60% inhibition). Also, the C3.8 score at CDK7/cyclinH/MAT1 (h) is recorded as 2 (Score 2 = 30-60% inhibition). Moreover, on cSRC (h), the C3.9 score is on record as 2 (Score 2 = 30-60% inhibition).

Consider `O=C1CN2CCN(CC2)Cc2cccc(c2)Nc2ncnc(n2)-c2ccnc(c2)CCCN1` [Compound 36], for which the IC50 on GSK-3β is less than 10 nM. The “C2 Score” value in the experiment with Chang cells is 4 (Score 4=>80% increase in D-glucose incorporation). Besides, at Aurora-A (h), the C3.1 score is listed as 1 (Score 1 = 10-30% inhibition). Moreover, the C3.8 score at CDK7/cyclinH/MAT1 (h) is 2 (Score 2 = 30-60% inhibition). The C3.9 score at cSRC (h) is given as 1 (Score 1 = 10-30% inhibition).

In the case of `O=C1NCCCc2cc(ccn2)-c2ncnc(n2)Nc2cccc(c2)CN2CCCC1C2` (stereo not shown) [Compound 15], the IC50 at GSK-3β fell in the range of 10 to 100 nM. For the same compound, the C3.1 score on Aurora-A (h) was 1 (Score 1 = 10-30% inhibition). For the same compound, the C3.8 score at CDK7/cyclinH/MAT1 (h) is 2 (Score 2 = 30-60% inhibition). Moreover, the C3.9 score on cSRC (h) is on record as 1 (Score 1 = 10-30% inhibition).

As to `CN1CC(=O)NCC#Cc2cc(ccn2)-c2ncnc(n2)Nc2cccc(c2)C1` [Compound 1], the IC50 at GSK-3β was less than 10 nM. Besides, the “C2 Score” value in the experiment with Chang cells was 3 (Score 3=60-80% increase). The C3.1 score on Aurora-A (h) is recorded as 1 (Score 1 = 10-30% inhibition). Further, the C3.8 score on CDK7/cyclinH/MAT1 (h) is listed as 4 (Score 4 = >80% inhibition). In addition, the C3.9 score at cSRC (h) is given as 3 (Score 3 = 60-80% inhibition).
